Laboratory results taken from patent US4977189A, “Substituted guanidinedicarbonyl derivatives” (American Cyanamid Company, priority 1988, dated 1990).
“And” between values parts separate entries of the source, which are not always exact repeats. Equal entries are not always repeated. Blank lines part the entries; values can stand above or below the compound they belong to.

Assays:
[1] = tested on: Brain-Specific Receptors (3H-benzodiazepine binding); assay: Inhibition of the Binding of 3H-Benzodiazepine to Brain-Specific Receptors of Rats; parameters: species or system rat (male albino, Wistar strain; whole cortex); conditions: 3H-diazepam (1.5 nM) or 3H-flunitrazepam (1.0 nM); rat cortex P2-fraction; 30 minutes in ice; test concentration not given
Description: A test utilized for the determination of anxiolytic activity is the measurement of the ability of test compounds to inhibit the binding of tritiated benzodiazepines to brain-specific recptors of warm-blooded animals. A modification of the method described by R. F. Squires, et al., Nature, 266, No. 21, pg 732 (April, 1977) and H. Mohler, et al., Science, 198, pg 849 (1977) was employed.
Male albino rats (Wistar strain, weighing 150-200 g each) were used. The test compounds were solubilized in either dimethylformamide, acetic acid, ethanol or hydrochloric acid.
Whole cortex of rats was homogenized gently in 20 volumes of ice-cold 0.32M sucrose, centrifuged twice at 1000 g for 10 minutes and then recentrifuged at 30,000 g for 20 minutes to produce a crude P2 -synaptosomal fraction. The P2 -fraction was either: (1) resuspended in twice the original volume in hypotonic 50 mM Tris.HCl (pH 7.4), or (2) resuspended in one-half the original volume in hypotonic 10 mM Tris.HCl (pH 7.4) and frozen (-20° C.) until time of use. Frozen P2 preparations were thawed and resuspended in four times the original homogenizing volume at time of assay.
The binding assay consisted of 300 μl of the P2 -fraction suspension (0.2-0.4 mg protein), 100 μl of test drug and 100 μl of ^3 H-diazepam (1.5 nM, final concentration) or ^3 H-flunitrazepam (1.0 nM, final concentration) which was added to 1.5 ml of 50 mM Tris.HCl (pH 7.4). Non-specific binding controls and total binding controls d 100 μl of diazepam (3 μM final concentration) and 100 μl of deionized water, respectively, in place of the test compound. Incubation for 30 minutes proceeded in ice and was terminated by filtration, under vacuum, through glass fiber filters. The filters were washed twice with 5 ml of ice-cold 50 mM Tris.HCl (pH 7.4) and placed in scintillation vials. After drying at 50°-60° C. for 30 minutes, 10 ml of diluent was added and the radioactivity determined in a scintillation counter.
Inhibition of binding was calculated by the difference between total binding and binding in the presence of test compound, divided by the total binding, X 100.

Royal Hart mice = assay: Hypoxic Survival Test; assay type: in vivo, mouse (Royal Hart); conditions: Mus musculus, ip, 5 min, 30 minutes prior, 10% oxygen, survival after 5 minutes, read-out: % Survivors; for responders at 50 mg/kg: 50 mg/kg intraperitoneally; for responders at 100 mg/kg: 100 mg/kg intraperitoneally
Experimental: A useful in vivo test that measures how effectively central nervous system-acting drugs enhance survival in a hypoxic environment, presumably by improving the ratio of energy supply to demand is known as the Hypoxic Survival Test. […] Drugs are tested by intraperitoneally injecting groups of mice 30 minutes prior to placing them in a hypoxic mixture and measuring survival. The rationale of this test is that drugs which enhance survival under hypoxic conditions without concomitant, depression or sedative side effects, may do so by enhancing energy metabolism, or by preserving normal brain function under conditions of reduced energy metabolism. Given the dependence of the brain on a constant supply of energy, drugs which have this property may have many far-reaching therapeutic indications, including recovery from stroke and closed head injury, as well as reducing the deleterious effects of the aging central nervous system.
Groups of 20 Royal Hart mice (6 weeks of age) are injected intraperitoneally with test compound (1-200 mg/kg) 30 minutes prior to placing them in a hypoxic mixture (10% oxygen in 90% […]) and measuring survival after 5 minutes.
A separate group of 20 mice is injected intraperitoneally with saline solution (0.01 cc/g of body weight) and processed as described above.
Still another group of 20 mice is injected intraperitoneally with 0.125 mg/kg of physostigmine and processed as described above.

Swiss-Webster mice = assay: Passive Avoidance Anoxic Induced Amnesia Test; assay type: in vivo, mouse (Swiss-Webster, middle-aged); conditions: 50 mg/kg intraperitoneally, 30 minutes prior to training and testing; latency vs saline control; 30% considered active
Description: Another in vivo test associated with decreased neural function in mammals is the Passive-Avoidance Anoxic-Induced-Amnesia Test. This test is used to determine the attenuation of anoxic induced amnesia in mice treated with drug, as compared to saline treated control animals with no drug.
A shock-motivated, single trial, step-through passive avoidance procedure is used. Groups of 25 Swiss-Webster, middle-aged mice (9 months of age) are placed singly in the front chamber of a 2-chamber box and are allowed to voluntarily cross into the rear chamber. As soon as the mouse enters the rear chamber, a door automatically traps the animal and a mild electric shock (0.4 mA for 4 seconds) is delivered to its feet. Following the foot shock, the mice are initially placed in an anoxic environment (0% oxygen) for 12 seconds, which quickly induces unconsciousness. They are then placed in a hypoxic environment (15% oxygen) for four minutes which prolongs the oxygen deprived state, maintaining unconsciousness. All testing is performed 24 hours later, and in all cases the mice appear fully recovered from the previous anoxic/hypoxic treatment. All test compounds are administered intraperitoneally at a dose of 10-200 mg/kg, 30 minutes prior to training and testing. […]
The latency to enter the rear chamber is recorded for both training and testing. […]

SMILES: Cc1cccc(C(=O)N=C(NC(=O)c2cccc(C)c2)Nc2ccc(C(N)=O)cc2)c1 [N,N'-[[4-(Aminocarbonyl)phenyl]carbonimidoyl]bis[3-methylbenzamide]]
- % Inhibition [1]: 25%
- responders at 50 mg/kg (Royal Hart mice): 40%
- responders at 100 mg/kg (Royal Hart mice): 43%

SMILES: NC(=O)c1ccc(N=C(NC(=O)c2ccccc2)NC(=O)c2ccccc2)cc1 [N,N'-[[[4-(Aminocarbonyl)phenyl]imino]methylene]bis[benzamide]]
- responders at 50 mg/kg (Royal Hart mice): 40%
- responders at 100 mg/kg (Royal Hart mice): 62%
- responders at 200 mg/kg (Royal Hart mice; 200 mg/kg intraperitoneally): 47%
- % Improvement (Swiss-Webster mice): 50% and 54%

SMILES: COc1ccc(C(=O)NC(=NC(=O)c2cccs2)Nc2cccc(C(N)=O)c2)cc1 [N-[[[3-(Aminocarbonyl)phenyl]amino][(4-methoxybenzoyl)amino]methylene]-2-thiophenecarboxamide]
- % Inhibition [1]: 19%
- responders at 50 mg/kg (Royal Hart mice): 45%
- responders at 100 mg/kg (Royal Hart mice): 45%

- % Inhibition [1]: 14%
SMILES: COc1ccc(C(=O)NC(=NC(=O)c2ccsc2)Nc2ccc(C(N)=O)cc2)cc1 [N-[[[4-(Aminocarbonyl)phenyl]amino][(4-methoxybenzoyl)amino]methylene]-3-thiophenecarboxamide]

- % Inhibition [1]: 85%
SMILES: Cc1ccc(C(=O)NC(=NC(=O)c2cccc(C)c2)Nc2ccc(C(N)=O)cc2)cc1 [N-[[[4-(Aminocarbonyl)phenyl]amino][(4-methylbenzoyl)amino]methylene]-3-methylbenzamide]
